Assays:
barnyard grass [1] = experiment: Test Example 3: herbicidal effect by foliage application, Wagner pot (Table 18, symbol H); format: in vivo, barnyard grass (Echinochloa crus-galli)
In short: (§1)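 Plants were sown in alluvial soil held under 0.1–0.5 cm standing water and grown 14 days in a greenhouse at 25–30 °C. An emulsifiable formulation, water-diluted to the set dose, was then sprayed onto the foliage, and effects were scored three weeks later using previously defined criteria.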

Chinese sprangletop = experiment: Test Example 3: herbicidal effect by foliage application, Wagner pot (Table 18, symbol D); format: in vivo, chinese sprangletop (Leptochloa chinensis)
In short: as §1

rice flat sedge = experiment: Test Example 3: herbicidal effect by foliage application, Wagner pot (Table 18, symbol E); format: in vivo, rice flat sedge (Cyperus iria)
In short: as §1

southern crabgrass [2] = experiment: Test Example 4: herbicidal effect by soil treatment (Table 19, symbol F); format: in vivo, southern crabgrass (Digitaria ciliaris)
In short: (§2)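 Pre-emergence style soil spray: seeds under ~1.5 cm sterilized diluvial soil received a uniform coat of emulsion diluted to the predetermined herbicide amount. Greenhouse 25–30° C; readout at week three on previously defined criteria.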

green foxtail [3] = experiment: Test Example 4: herbicidal effect by soil treatment (Table 19, symbol G); format: in vivo, green foxtail (Setaria viridis)
In short: as §2

barnyard grass [4] = experiment: Test Example 4: herbicidal effect by soil treatment (Table 19, symbol H); format: in vivo, barnyard grass (Echinochloa crus-galli)
In short: as §2

wild oat [5] = experiment: Test Example 4: herbicidal effect by soil treatment (Table 19, symbol I); format: in vivo, wild oat (Avena fatua)
In short: as §2

Italian ryegrass [6] = experiment: Test Example 4: herbicidal effect by soil treatment (Table 19, symbol K); format: in vivo, Italian ryegrass (Lolium multiflorum)
In short: as §2

windgrass [7] = experiment: Test Example 4: herbicidal effect by soil treatment (Table 19, symbol L); format: in vivo, windgrass (Apera spica-venti)
In short: as §2

velvetleaf [8] = experiment: Test Example 4: herbicidal effect by soil treatment (Table 19, symbol M); format: in vivo, velvetleaf (Abutilon theophrasti)
In short: as §2

redroot pigweed = experiment: Test Example 4: herbicidal effect by soil treatment (Table 19, symbol N); format: in vivo, redroot pigweed (Amaranthus retroflexus)
In short: as §2

lambsquarters [9] = experiment: Test Example 4: herbicidal effect by soil treatment (Table 19, symbol O); format: in vivo, lambsquarters (Chenopodium album)
In short: as §2

chickweed = experiment: Test Example 4: herbicidal effect by soil treatment (Table 19, symbol P); format: in vivo, common chickweed (Stellaria media)
In short: as §2

persian speedwell [10] = experiment: Test Example 4: herbicidal effect by soil treatment (Table 19, symbol R); format: in vivo, Persian speedwell (Veronica persica)
Text: [Test Example 4] Herbicidal Effect Test by Soil Treatment
Sterilized diluvial soil was placed in a plastic box having a length of 21 cm, a width of 13 cm, and a depth of 7 cm. The seeds of each of southern crabgrass, green foxtail, barnyard grass, wild oat, blackgrass, Italian ryegrass, windgrass, velvetleaf, redroot pigweed, lambsquarters, chickweed, false cleavers, persian speedwell, corn, soybean, rice, wheat, beet, and rapeseed were sowed in a spot-like manner and covered with the soil having a thickness of about 1.5 cm. Subsequently, the emulsion agent of the compound of the present invention prepared according to Formulation Example 2 was diluted with water so as to achieve a predetermined herbicide amount, and the diluted emulsion agent was uniformly applied to the surface of the soil with a small-sized spray. The plastic box was placed in a greenhouse at 25° C. to 30° C. for growth of the plants. Three weeks after the herbicide application, the effect of the herbicide on each plant was evaluated according to the criteria of Test Example 1.

southern crabgrass [11] = experiment: Test Example 5: herbicidal effect by foliage application, plastic box (Table 20, symbol F); format: in vivo, southern crabgrass (Digitaria ciliaris); settings: foliage application, 320 g/ha, 3 weeks after application
In short: (§3)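 Plants were sown into sterilized diluvial soil under about 1.5 cm cover and kept in a greenhouse at 25° C. to 30° C. Fourteen days on, foliage received an even spray of the diluted emulsion. Herbicidal or crop effect was judged three weeks afterwards.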

green foxtail [12] = experiment: Test Example 5: herbicidal effect by foliage application, plastic box (Table 20, symbol G); format: in vivo, green foxtail (Setaria viridis); settings: foliage application, 320 g/ha, 3 weeks after application
In short: as §3

barnyard grass [13] = experiment: Test Example 5: herbicidal effect by foliage application, plastic box (Table 20, symbol H); format: in vivo, barnyard grass (Echinochloa crus-galli); settings: foliage application, 320 g/ha, 3 weeks after application
In short: as §3

wild oat [14] = experiment: Test Example 5: herbicidal effect by foliage application, plastic box (Table 20, symbol I); format: in vivo, wild oat (Avena fatua); settings: foliage application, 320 g/ha, 3 weeks after application
In short: as §3

blackgrass [15] = experiment: Test Example 5: herbicidal effect by foliage application, plastic box (Table 20, symbol J); format: in vivo, blackgrass (Alopecurus myosuroides); settings: foliage application, 320 g/ha, 3 weeks after application
In short: as §3

Italian ryegrass [16] = experiment: Test Example 5: herbicidal effect by foliage application, plastic box (Table 20, symbol K); format: in vivo, Italian ryegrass (Lolium multiflorum); settings: foliage application, 320 g/ha, 3 weeks after application
In short: as §3

windgrass [17] = experiment: Test Example 5: herbicidal effect by foliage application, plastic box (Table 20, symbol L); format: in vivo, windgrass (Apera spica-venti); settings: foliage application, 320 g/ha, 3 weeks after application
In short: as §3

velvetleaf [18] = experiment: Test Example 5: herbicidal effect by foliage application, plastic box (Table 20, symbol M); format: in vivo, velvetleaf (Abutilon theophrasti); settings: foliage application, 320 g/ha, 3 weeks after application
In short: as §3

lambsquarters [19] = experiment: Test Example 5: herbicidal effect by foliage application, plastic box (Table 20, symbol O); format: in vivo, lambsquarters (Chenopodium album); settings: foliage application, 320 g/ha, 3 weeks after application
In short: as §3

persian speedwell [20] = experiment: Test Example 5: herbicidal effect by foliage application, plastic box (Table 20, symbol R); format: in vivo, Persian speedwell (Veronica persica); settings: foliage application, 320 g/ha, 3 weeks after application
In short: as §3

blackgrass [21] = experiment: Test Example 4: herbicidal effect by soil treatment (Table 19, symbol J); format: in vivo, blackgrass (Alopecurus myosuroides); settings: amount of applied herbicide 320 g/ha
In short: as §2

[22] = amount of applied herbicide 320 g/ha

Question: With `Cc1nn(C)c(=O)c(-c2c(-c3ccc(F)cc3)sc3ccc(F)cc23)c1OCC(=O)c1ccccc1` [2-008] as the compound, how does the “herbicidal effect on H (barnyard grass), rating 0-5” value (barnyard grass [1]; 320 g/ha) read?
Answer: Its value is 2 (Herbicidal rate of 20% or more and less than 40%).

Question: What about the “herbicidal effect on D (Chinese sprangletop), rating 0-5” value (Chinese sprangletop; 320 g/ha) of the same compound?
Answer: The value was 1 (Herbicidal rate of 5% or more and less than 20%).

Question: What about the “herbicidal effect on E (rice flat sedge), rating 0-5” value (rice flat sedge; 320 g/ha) of the same compound?
Answer: Its value is 4 (Herbicidal rate of 70% or more and less than 90%).

Question: What about the “herbicidal effect rating, F: southern crabgrass” value (southern crabgrass [2]; 320 g/ha) of the same compound?
Answer: Its value is 0 (Herbicidal rate of 5% or less (almost no effect)).

Question: And the “herbicidal effect rating, G: green foxtail” value (green foxtail [3]; 320 g/ha)?
Answer: Its value is 0 (Herbicidal rate of 5% or less (almost no effect)).

Question: And the “herbicidal effect rating, H: barnyard grass” value (barnyard grass [4]; 320 g/ha)?
Answer: The value was 0 (Herbicidal rate of 5% or less (almost no effect)).

Question: And the “herbicidal effect rating, I: wild oat” value (wild oat [5]; 320 g/ha)?
Answer: The value was 0 (Herbicidal rate of 5% or less (almost no effect)).

Question: And the “herbicidal effect rating, K: Italian ryegrass” value (Italian ryegrass [6]; 320 g/ha)?
Answer: Its value is 0 (Herbicidal rate of 5% or less (almost no effect)).

Question: And the “herbicidal effect rating, L: windgrass” value (windgrass [7]; 320 g/ha)?
Answer: Its value is 0 (Herbicidal rate of 5% or less (almost no effect)).

Question: And the “herbicidal effect rating, M: velvetleaf” value (velvetleaf [8]; 320 g/ha)?
Answer: Its value is 0 (Herbicidal rate of 5% or less (almost no effect)).

Question: What about the “herbicidal effect rating, N: redroot pigweed” value (redroot pigweed; 320 g/ha) of the same compound?
Answer: The value was 4 (Herbicidal rate of 70% or more and less than 90%).

Question: And the “herbicidal effect rating, O: lambsquarters” value (lambsquarters [9]; 320 g/ha)?
Answer: Its value is 0 (Herbicidal rate of 5% or less (almost no effect)).

Question: And the “herbicidal effect rating, P: chickweed” value (chickweed; 320 g/ha)?
Answer: The value was 0 (Herbicidal rate of 5% or less (almost no effect)).

Question: And the “herbicidal effect rating, R: persian speedwell” value (persian speedwell [10]; 320 g/ha)?
Answer: Its value is 0 (Herbicidal rate of 5% or less (almost no effect)).

Question: What about the “effect on southern crabgrass (F)” value (southern crabgrass [11]) of the same compound?
Answer: Its value is 0 (Herbicidal rate of 5% or less (almost no effect)).

Question: What about the “effect on green foxtail (G)” value (green foxtail [12]) of the same compound?
Answer: Its value is 0 (Herbicidal rate of 5% or less (almost no effect)).

Question: And the “effect on barnyard grass (H)” value (barnyard grass [13])?
Answer: Its value is 0 (Herbicidal rate of 5% or less (almost no effect)).

Question: What about the “effect on wild oat (I)” value (wild oat [14]) of the same compound?
Answer: Its value is 0 (Herbicidal rate of 5% or less (almost no effect)).

Question: What about the “effect on blackgrass (J)” value (blackgrass [15]) of the same compound?
Answer: The value was 0 (Herbicidal rate of 5% or less (almost no effect)).

Question: What about the “effect on Italian ryegrass (K)” value (Italian ryegrass [16]) of the same compound?
Answer: Its value is 3 (Herbicidal rate of 40% or more and less than 70%).

Question: And the “effect on windgrass (L)” value (windgrass [17])?
Answer: Its value is 0 (Herbicidal rate of 5% or less (almost no effect)).

Question: What about the “effect on velvetleaf (M)” value (velvetleaf [18]) of the same compound?
Answer: Its value is 1 (Herbicidal rate of 5% or more and less than 20%).

Question: What about the “effect on lambsquarters (O)” value (lambsquarters [19]) of the same compound?
Answer: The value was 1 (Herbicidal rate of 5% or more and less than 20%).

Question: What about the “effect on persian speedwell (R)” value (persian speedwell [20]) of the same compound?
Answer: Its value is 3 (Herbicidal rate of 40% or more and less than 70%).

Question: With `COc1cc(Cl)ccc1-c1sc2ccc(F)cc2c1-c1c(O)c(C)nn(C)c1=O` [2-368] as the compound, how does the “herbicidal effect on H: barnyard grass” value (barnyard grass [1]; [22]) read?
Answer: Its value is 4 (Herbicidal rate of 70% or more and less than 90%).

Question: What about the “herbicidal effect on D: Chinese sprangletop” value (Chinese sprangletop; [22]) of the same compound?
Answer: The value was 3 (Herbicidal rate of 40% or more and less than 70%).

Question: What about the “herbicidal effect on E: rice flat sedge” value (rice flat sedge; [22]) of the same compound?
Answer: Its value is 3 (Herbicidal rate of 40% or more and less than 70%).

Question: And the “herbicidal effect, F: southern crabgrass” value (southern crabgrass [2]; [22])?
Answer: Its value is 0 (Herbicidal rate of 5% or less (almost no effect)).

Question: What about the “herbicidal effect, G: green foxtail” value (green foxtail [3]; [22]) of the same compound?
Answer: Its value is 0 (Herbicidal rate of 5% or less (almost no effect)).

Question: And the “herbicidal effect, H: barnyard grass” value (barnyard grass [4]; [22])?
Answer: Its value is 0 (Herbicidal rate of 5% or less (almost no effect)).

Question: And the “herbicidal effect, I: wild oat” value (wild oat [5]; [22])?
Answer: The value was 0 (Herbicidal rate of 5% or less (almost no effect)).

Question: What about the “herbicidal effect, J: blackgrass” value (blackgrass [21]) of the same compound?
Answer: The value was 0 (Herbicidal rate of 5% or less (almost no effect)).

Question: What about the “herbicidal effect, K: Italian ryegrass” value (Italian ryegrass [6]; [22]) of the same compound?
Answer: The value was 0 (Herbicidal rate of 5% or less (almost no effect)).

Question: And the “herbicidal effect, L: windgrass” value (windgrass [7]; [22])?
Answer: Its value is 4 (Herbicidal rate of 70% or more and less than 90%).

Question: What about the “herbicidal effect, M: velvetleaf” value (velvetleaf [8]; [22]) of the same compound?
Answer: Its value is 0 (Herbicidal rate of 5% or less (almost no effect)).

Question: What about the “herbicidal effect, N: redroot pigweed” value (redroot pigweed; [22]) of the same compound?
Answer: Its value is 2 (Herbicidal rate of 20% or more and less than 40%).

Question: And the “herbicidal effect, O: lambsquarters” value (lambsquarters [9]; [22])?
Answer: Its value is 3 (Herbicidal rate of 40% or more and less than 70%).

Question: What about the “herbicidal effect, P: chickweed” value (chickweed; [22]) of the same compound?
Answer: Its value is 0 (Herbicidal rate of 5% or less (almost no effect)).

Question: And the “herbicidal effect, R: persian speedwell” value (persian speedwell [10]; [22])?
Answer: Its value is 0 (Herbicidal rate of 5% or less (almost no effect)).
